Residue numbers refer to the chain shown, from its start.
Experiments:
wild-type 5-HT3 receptor = molecular target: T1, wild-type 5-HT3 receptor (Mus musculus, UniProt P23979); details: maximum number of binding sites, n = 5
T1 sequence (P23979 24-483 isoform P23979-2 limits assumed): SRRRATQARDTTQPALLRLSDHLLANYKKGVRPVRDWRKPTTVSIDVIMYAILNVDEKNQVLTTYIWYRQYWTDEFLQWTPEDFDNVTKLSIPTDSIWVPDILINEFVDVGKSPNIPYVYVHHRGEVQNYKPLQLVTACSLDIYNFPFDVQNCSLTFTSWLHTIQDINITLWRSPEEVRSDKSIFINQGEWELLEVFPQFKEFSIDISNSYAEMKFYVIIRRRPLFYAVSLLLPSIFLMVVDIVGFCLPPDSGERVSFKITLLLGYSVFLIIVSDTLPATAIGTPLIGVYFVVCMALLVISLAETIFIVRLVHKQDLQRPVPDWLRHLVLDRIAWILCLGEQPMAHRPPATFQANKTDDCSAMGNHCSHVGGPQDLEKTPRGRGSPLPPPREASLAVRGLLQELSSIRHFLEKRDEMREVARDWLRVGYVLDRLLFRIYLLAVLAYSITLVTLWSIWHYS

[1] = molecular target: T2, P391R mutant 5-HT3 receptor (Mus musculus, UniProt P23979, P402R); details: maximum number of binding sites, n = 5
T2 sequence (P23979 24-483 isoform P23979-2 P396R limits assumed): T1 sequence (P23979 24-483 isoform P23979-2 limits assumed) with P373R

[2] = molecular target: T3, R344H mutant 5-HT3 receptor (Mus musculus, UniProt P23979, R349H); details: maximum number of binding sites, n = 9
T3 sequence (P23979 24-483 isoform P23979-2 R349H limits assumed): T1 sequence (P23979 24-483 isoform P23979-2 limits assumed) with R326H

With `CN1C2CCCC1CC(NC(=O)c1nn(C)c3ccccc13)C2` (stereo not drawn) [[^3H]Granisetron] the Bmax (wild-type 5-HT3 receptor) was 567 ± 149 fmol/mg, the Bmax [1] was 353 ± 113 fmol/mg and the Bmax [2] was 853 ± 232 fmol/mg.

— article PMC2649375 (Journal of molecular neuroscience : MN, 2006)
